Where a SMILES comes first, the peptide text is derived from it. [ ]: non-standard residue; d: D form. The star is where a group is joined. X2 = CC(C)C[C@@H](CN[C@@H](CC(C)C)C(N)=O)N*; X1 = O=C(Cc1ccc(O)cc1)*
Test system: BN receptors on the Swiss 3T3 mouse fibroblast cell line
Test: Test 1: displacement of [¹²⁵I-Tyr⁴]-BN from BN receptors on Swiss 3T3 cells
Type: binding
Conditions: 1 nmol [¹²⁵I-Tyr⁴]-BN, 4 °C, 3 hours
Experimental: The biological investigation of the new compounds of the invention was carried out in four tests. The BN-antagonizing effect of the compounds in question was determined in Test 1, based on measuring the displacement of the labelled [¹²⁵I-Tyr⁴]-BN from the BN receptors being present on the Swiss 3T3 mouse fibroblast cells. Test 2 and Test 3 were used to study the inhibitory effect of the compounds of the invention on the proliferation and propagation of NCI-H69 small-cell lung cancer cells. The inhibitory effect of the compounds of the invention on non-small-cell lung cancer cells and epithelial-cell lung cancer cells was investigated in Test 4.
Study of the binding of target compounds to BN receptors on the Swiss 3T3 mouse fibroblast cell line
Swiss 3T3 mouse fibroblast cells were grown on tissue-cultivating plates containing 24 holes in a D-MEM culture medium containing FCS of 10 % until a confluent and resting state (3x10⁵ cell/hole). The cells were washed 3 times with 0.5 ml of D-MEM of pH 7.4 (containing 0.2 % of BSA and 24 mmol of HEPES, and cooled to 4 °C), i.e. incubation mixture, each. […] At the end of the reaction the cells were washed twice with the incubation mixture and then 3 times with PBS (pH = 7.4).
The washings were carried out with 750 µl volumes of the ice-cold liquids each. The cells were solubilized by adding 750 µl of 0.5 M sodium hydroxide solution, carried over into test-tubes by pipette and the radio-activity bound to the cells was measured. The grade of aspecific binding was determined in the presence of a high concentration (10⁻⁶ mol/l) of cold [Tyr⁴]-BN. The amount of the specifically bound, labelled hormone was expressed as the percentage of the maximum binding, i.e. the specific binding in the absence of the compounds to be tested, as shown in Table 1.

Row | Compound | Displacement as percentage of control net binding (1.18 µmol/l compound) [%] | Displacement as percentage of control net binding (2.36 µmol/l compound) [%] | Displacement as percentage of control net binding (4.71 µmol/l compound) [%] | Displacement as percentage of control net binding (9.42 µmol/l compound) [%] | Displacement as percentage of control net binding (18.8 µmol/l compound) [%] | Displacement as percentage of control net binding (37.6 µmol/l compound) [%] | Displacement as percentage of control net binding (75 µmol/l compound) [%]
1 | CC(C)C[C@@H](CN[C@@H](CC(C)C)C(N)=O)NC(=O)[C@@H](Cc1c[nH]c2ccccc12)NC(=O)[C@H](Cc1ccccc1)NC(=O)[C@@H](Cc1c[nH]c2ccccc12)NC(=O)[C@H](N)Cc1ccc(O)cc1 [(4)] (H-[dY][dW]F[dW]-X2) | 85 | 88 | 79 | 72 | 61 | 52 | 45
2 | CC(C)C[C@@H](CN[C@@H](CC(C)C)C(N)=O)NC(=O)[C@@H](Cc1c[nH]c2ccccc12)NC(=O)[C@H](Cc1ccccc1)NC(=O)[C@@H](Cc1c[nH]c2ccccc12)NC(=O)Cc1ccc(O)cc1 [(1)] | 105 | 96 | 99 | 103 | 106 | 107 | 105
3 | CC(C)C[C@H](NC(=O)[C@H](CC(C)C)NC(=O)[C@@H](Cc1c[nH]c2ccccc12)NC(=O)[C@H](Cc1ccccc1)NC(=O)[C@@H](Cc1c[nH]c2ccccc12)NC(=O)Cc1ccc(O)cc1)C(N)=O [(I), reference compound] (X1-[dW]F[dW]LL-NH2) | 108 | 98 | 83 | 55 | 33 | 18 | 23
